Experimental data from the supplement of paper PMC10307832.

Tests used:
Assay in all cases: relative viability (nuclei count vs DMSO), 5 days (fraction); higher = more cells survive
Bosutinib + Pictilisib = compound: COc1cc(Nc2c(C#N)cnc3cc(OCCCN4CCN(C)CC4)c(OC)cc23)c(Cl)cc1Cl [Bosutinib] + CS(=O)(=O)N1CCN(Cc2cc3nc(-c4cccc5[nH]ncc45)nc(N4CCOCC4)c3s2)CC1 [Pictilisib] (partner 1 µM)
Summary of the method: (§1)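 Lung cancer cell lines in 1536-well plates were dosed by pin tool the day after seeding, either with one drug alone or with a fixed anchor-drug dose plus five library-drug doses (not always all listed) in √10 steps. After 5 days, cells were fixed and their nuclei stained in one step (final 0.05% Triton X-100, 1% formaldehyde, 1 ug/ml Hoechst), then counted on 4× images. Relative viability is the nuclei count in treated wells divided by that in vehicle wells. Values are medians of duplicate plates.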

Bosutinib + Tozasertib = compound: COc1cc(Nc2c(C#N)cnc3cc(OCCCN4CCN(C)CC4)c(OC)cc23)c(Cl)cc1Cl [Bosutinib] + Cc1cc(Nc2cc(N3CCN(C)CC3)nc(Sc3ccc(NC(=O)C4CC4)cc3)n2)n[nH]1 [Tozasertib] (partner 0.1 µM)
Summary of the method: as §1

Bosutinib + Alpelisib = compound: COc1cc(Nc2c(C#N)cnc3cc(OCCCN4CCN(C)CC4)c(OC)cc23)c(Cl)cc1Cl [Bosutinib] + Cc1nc(NC(=O)N2CCC[C@H]2C(N)=O)sc1-c1ccnc(C(C)(C)C(F)(F)F)c1 [Alpelisib] (partner 2 µM)
Summary of the method: as §1

Bosutinib + Phenformin = compound: COc1cc(Nc2c(C#N)cnc3cc(OCCCN4CCN(C)CC4)c(OC)cc23)c(Cl)cc1Cl [Bosutinib] + N=C(N)NC(=N)NCCc1ccccc1 [Phenformin] (partner 250 µM)
Summary of the method: as §1

Bosutinib + Vorinostat = compound: COc1cc(Nc2c(C#N)cnc3cc(OCCCN4CCN(C)CC4)c(OC)cc23)c(Cl)cc1Cl [Bosutinib] + O=C(CCCCCCC(=O)Nc1ccccc1)NO [Vorinostat] (partner 1 µM)
Summary of the method: as §1

Cell Line	relative viability (Bosutinib + Pictilisib; first compound 0.01 µM)	relative viability (Bosutinib + Pictilisib; first compound 0.03162 µM)	relative viability (Bosutinib + Pictilisib; first compound 0.1 µM)	relative viability (Bosutinib + Pictilisib; first compound 1 µM)	relative viability (Bosutinib + Tozasertib; first compound 0.01 µM)	relative viability (Bosutinib + Tozasertib; first compound 0.03162 µM)	relative viability (Bosutinib + Tozasertib; first compound 0.1 µM)	relative viability (Bosutinib + Tozasertib; first compound 1 µM)	relative viability (Bosutinib + Alpelisib; first compound 0.01 µM)	relative viability (Bosutinib + Alpelisib; first compound 0.03162 µM)	relative viability (Bosutinib + Alpelisib; first compound 0.1 µM)	relative viability (Bosutinib + Alpelisib; first compound 1 µM)	relative viability (Bosutinib + Phenformin; first compound 0.01 µM)	relative viability (Bosutinib + Phenformin; first compound 0.03162 µM)	relative viability (Bosutinib + Phenformin; first compound 0.1 µM)	relative viability (Bosutinib + Phenformin; first compound 1 µM)	relative viability (Bosutinib + Vorinostat; first compound 0.01 µM)	relative viability (Bosutinib + Vorinostat; first compound 0.03162 µM)	relative viability (Bosutinib + Vorinostat; first compound 0.1 µM)	relative viability (Bosutinib + Vorinostat; first compound 1 µM)
201T	0.685	0.653	0.66	0.615	0.92	0.913	0.951	0.713	1	1.02	1.01	0.909	0.444	0.421	0.449	0.425	0.941	1.04	1	0.894
A-427	0.724	0.801	0.874	0.736	0.231	0.227	0.217	0.194	1.03	1.11	1.03	0.978	0.46	0.369	0.331	0.26	0.87	0.888	0.833	0.846
ABC-1	0.836	0.85	0.841	0.596	0.217	0.168	0.144	0.177	0.938	0.944	0.897	0.731	0.186	0.196	0.224	0.26	1.18	1.08	1.32	1.14
BEN	0.548	0.706	0.664	0.429	0.499	0.439	0.48	0.539	0.986	1.04	0.888	0.669	0.254	0.257	0.253	0.25	0.557	0.56	0.654	0.514
CAL-12T	0.31	0.496	0.46	0.409	0.32	0.316	0.322	0.318	1.09	1.09	1.2	0.787	0.567	0.584	0.52	0.382	0.756	0.773	0.664	0.528
COR-L23	0.893	0.826	0.813	0.81	0.195	0.236	0.194	0.198	0.803	0.799	0.747	0.836	0.432	0.451	0.449	0.496	0.535	0.553	0.431	0.561
COR-L 105	0.423	0.442	0.387	0.393	0.344	0.371	0.325	0.308	0.869	1.27	0.871	0.565	0.55	0.522	0.519	0.357	0.861	0.844	0.828	0.624
ChaGo-K-1	0.544	1.05	1.06	1.14	0.22	0.254	0.224	0.213	–	–	–	–	0.536	0.503	0.497	0.515	0.808	0.847	0.792	0.789
EKVX	0.427	0.469	0.41	0.309	0.373	0.379	0.355	0.236	0.894	0.89	0.847	0.476	0.213	0.248	0.236	0.223	0.645	0.73	0.747	0.629
EMC-BAC-2	0.576	0.507	0.52	0.506	0.287	0.291	0.311	0.282	0.757	0.731	0.723	0.657	0.464	0.545	0.488	0.376	0.427	0.713	0.831	0.396
EPLC-272H	0.375	0.293	0.36	0.426	0.307	0.339	0.347	0.351	0.937	1.15	1.03	0.854	0.275	0.353	0.331	0.335	0.601	0.464	0.477	0.321
H3255	0.488	0.49	0.44	0.235	0.696	0.645	0.719	0.326	0.686	0.743	0.669	0.198	0.361	0.359	0.356	0.309	–	0.832	0.858	0.768
HARA	0.442	0.453	0.45	0.352	0.119	0.149	0.104	0.125	0.842	0.817	0.874	0.502	0.522	0.431	0.376	0.45	0.544	0.654	0.754	0.592
HCC-15	0.799	0.829	0.725	0.773	0.474	0.418	0.361	0.328	0.844	0.9	0.924	0.85	0.478	0.466	0.471	0.389	0.759	0.893	0.893	0.772
HCC-44	0.723	0.548	0.587	0.632	1.07	1.18	1.09	0.685	0.749	0.877	0.761	0.772	0.247	0.278	0.185	0.388	1.08	1.11	1.06	1.16
HCC-78	0.2	0.196	0.269	0.301	0.406	0.327	0.439	0.384	0.349	0.31	0.393	0.32	0.665	0.703	0.802	0.7	0.469	0.362	0.444	0.356
HCC-366	0.154	0.144	0.181	0.121	0.161	0.142	0.104	0.0934	0.532	0.416	0.305	0.111	0.63	0.61	0.555	0.53	0.433	0.378	0.375	0.286

Cell Line	relative viability (Bosutinib + Pictilisib; first compound 0.01 µM)	relative viability (Bosutinib + Pictilisib; first compound 0.03162 µM)	relative viability (Bosutinib + Pictilisib; first compound 0.1 µM)	relative viability (Bosutinib + Pictilisib; first compound 1 µM)	relative viability (Bosutinib + Tozasertib; first compound 0.01 µM)	relative viability (Bosutinib + Tozasertib; first compound 0.03162 µM)	relative viability (Bosutinib + Tozasertib; first compound 0.1 µM)	relative viability (Bosutinib + Tozasertib; first compound 1 µM)	relative viability (Bosutinib + Alpelisib; first compound 0.01 µM)	relative viability (Bosutinib + Alpelisib; first compound 0.03162 µM)	relative viability (Bosutinib + Alpelisib; first compound 0.1 µM)	relative viability (Bosutinib + Alpelisib; first compound 1 µM)	relative viability (Bosutinib + Phenformin; first compound 0.01 µM)	relative viability (Bosutinib + Phenformin; first compound 0.03162 µM)	relative viability (Bosutinib + Phenformin; first compound 0.1 µM)	relative viability (Bosutinib + Phenformin; first compound 1 µM)	relative viability (Bosutinib + Vorinostat; first compound 0.01 µM)	relative viability (Bosutinib + Vorinostat; first compound 0.03162 µM)	relative viability (Bosutinib + Vorinostat; first compound 0.1 µM)	relative viability (Bosutinib + Vorinostat; first compound 1 µM)
HCC-827	0.971	0.763	1.12	0.749	0.406	0.442	0.436	0.166	0.972	0.971	1.03	0.576	0.427	0.407	0.366	0.19	0.811	0.903	1.04	0.75
HOP-62	0.898	0.787	0.698	0.819	0.394	0.411	0.35	0.381	0.977	1	1.1	0.889	0.699	0.706	0.65	0.741	0.641	0.687	0.682	0.652
IA-LM	–	0.365	0.317	0.359	–	–	–	–	0.832	0.733	0.931	0.674	–	–	–	–	1.06	0.945	0.894	0.947
LC-2-ad	0.571	0.45	0.459	0.419	0.469	0.401	0.506	0.482	0.883	0.975	0.92	0.864	0.659	0.549	0.577	0.694	0.735	0.659	0.673	0.71
LCLC-97TM1	0.182	0.221	0.254	0.267	0.461	0.267	0.244	0.362	0.232	0.244	0.371	0.344	0.452	0.434	0.541	0.411	0.925	0.763	0.811	0.823
LCLC-103H	0.632	0.68	0.702	0.646	0.486	0.497	0.48	0.484	0.992	1.06	0.94	0.871	0.338	0.322	0.327	0.409	0.799	0.858	0.889	0.841
LK-2	0.645	0.603	0.577	0.378	0.194	0.168	0.191	0.178	1.11	1.08	1.05	0.761	0.711	0.552	0.382	0.348	0.267	0.278	0.263	0.313
LOU-NH91	0.492	0.524	0.504	0.468	0.64	0.645	0.607	0.538	0.807	0.7	0.638	0.46	0.717	0.699	0.636	0.497	0.903	0.922	0.92	0.819
LU99A	0.324	0.321	0.375	0.345	0.275	0.276	0.291	0.311	0.53	0.545	0.568	0.674	0.92	0.781	0.832	0.478	0.51	0.495	0.573	0.483
LXF-289	0.815	0.865	0.818	0.778	0.183	0.191	0.238	0.179	1.03	0.986	1.01	1.06	0.508	0.515	0.521	0.514	0.808	0.852	0.792	0.758
NCI-H23	0.523	0.503	0.531	0.481	0.368	0.345	0.404	0.364	0.674	0.666	0.519	0.546	0.807	0.77	0.831	0.751	0.779	0.622	0.651	0.619
NCI-H1563	0.611	0.607	0.613	0.526	–	–	–	–	0.905	0.904	0.859	0.63	0.65	0.635	0.617	0.573	–	–	–	–
NCI-H1650	0.587	0.516	0.524	0.49	0.344	0.407	0.36	0.295	–	–	–	–	0.434	0.344	0.339	0.318	0.717	0.623	0.529	0.41
NCI-H1703	0.246	0.235	0.242	0.228	–	–	–	–	0.351	0.378	0.294	0.261	–	–	–	–	–	–	–	–
NCI-H1792	0.299	0.27	0.367	0.332	–	–	–	–	0.774	0.677	0.757	0.505	0.256	0.254	0.327	0.251	–	–	–	–
NCI-H2342	–	–	–	–	0.51	0.449	0.526	0.517	–	–	–	–	0.565	0.68	0.56	0.643	0.779	0.787	0.859	0.828
SW 900	–	–	–	–	0.521	–	0.586	0.507	–	–	–	–	0.577	–	0.686	0.458	0.605	0.531	0.671	0.409
